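Cells were grown in 96-well plates and exposed to each compound for 48 hours at five concentrations; endpoints were interpolated linearly between bracketing concentrations, or set to the highest concentration if not reached. Here, GI50 denotes the concentration required for 50% inhibition of growth. At the TGI there is no net growth.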
What was measured:
Experiment in all cases: growth of human tumour cells (NCI), 48 h
[1] = tested on: A498 renal
[2] = tested on: SF-268 CNS
[3] = tested on: COLO 205 colon
[4] = tested on: SNB-19 CNS
[5] = tested on: HS 578T breast
[6] = tested on: MCF7 breast
[7] = tested on: HCT-15 colon
[8] = tested on: HCT-116 colon
[9] = tested on: NCI-H522 lung
[10] = tested on: HOP-92 NSCLC
[11] = tested on: OVCAR-8 ovarian

Row | SMILES | TGI [1] [µM] | TGI [2] [µM] | TGI [3] [µM] | TGI [4] [µM] | TGI [5] [µM] | TGI [6] [µM] | TGI [7] [µM] | TGI [8] [µM] | TGI [9] [µM] | TGI [10] [µM] | TGI [11] [µM] | GI50 [1] [µM] | GI50 [2] [µM] | GI50 [4] [µM] | GI50 [5] [µM] | GI50 [6] [µM] | GI50 [7] [µM] | GI50 [8] [µM] | GI50 [9] [µM]
1 | CC1CCC2(O)C3(C)CC4(O)OC2(C1O)C1(O)C3(O)C(OC(=O)c2ccc[nH]2)C(O)(C(C)C)C41C (stereo unspecified) | > 100 | > 31.6 | > 100 | > 100 | > 100 | > 100 | > 100 | > 100 | > 100 | > 100 | > 100 |  |  |  |  |  |  |  | 
2 | N#CN=[N+]([O-])c1ccc(C(=O)O)cc1 |  | 35.5 |  | 29.8 | 61.3 | 38.8 | 34.1 |  | 40.7 | 40.4 | 37.1 |  |  |  |  |  |  |  | 
3 | O=C1CSC(=S)N1 |  | > 100 | > 100 | > 100 | > 100 | > 100 | > 100 | > 100 | > 100 | > 100 | > 100 |  |  |  |  |  |  |  | 
4 | COc1ccc2nc3cc(Cl)ccc3c(NCCNC(=O)Cn3c(=O)n(C)c(=O)c4c3nc3c(c(=O)n(C)c(=O)n3C)[n+]4[O-])c2c1 | 98.8 | 60.8 | > 100 | > 77.9 | 71.2 | > 100 | > 100 | > 100 | > 74.6 | > 74.7 | 57 |  |  |  |  |  |  |  | 
5 | CSc1nc(NC2OCC(O)C(O)C2O)c(N)c(=O)[nH]1 (stereo unspecified) | > 100 | > 100 | > 100 | > 100 |  | > 100 | > 100 | > 100 | > 100 | > 100 | > 100 |  |  |  |  |  |  |  | 
6 | S=c1nc(N2CCCCC2)c2cn[nH]c2[nH]1 | > 100 | > 100 | > 100 | > 100 | > 100 | > 100 | > 100 | > 100 | 41.4 |  | > 100 |  |  |  |  |  |  |  | 
7 | NCCCOc1ccc([N+](=O)[O-])cc1Cl |  | > 100 | > 100 | > 100 |  |  | > 100 | > 100 | 18.2 | > 100 | > 100 |  |  |  |  |  |  |  | 
8 | O=C1NC2=C(CCCC/C2=N\O)C12CCCCC2 | > 100 | > 100 |  | > 100 |  |  | > 100 | > 100 |  |  |  |  |  |  |  |  |  |  | 
9 | Brc1ccc(C2CC(c3cccc4ccccc34)=Nc3ccccc3S2)cc1 (stereo unspecified) | > 100 | > 100 | > 100 | > 100 |  |  | > 100 | > 100 | > 100 | > 100 | > 100 |  |  |  |  |  |  |  | 
10 | Fc1ccc(C2CC(c3cccc(Nc4ccncc4)c3)=NN2c2ccc(Cl)cc2)cc1 (stereo unspecified) | 4.62 | 3.45 |  | 3.07 | 3.63 | 3.5 | 3.82 | 3.39 | 3.68 |  |  | 1.15 | 1.75 | 1.65 | 1.74 | 1.75 | 1.91 | 1.73 | 1.78
11 | Cc1cc2c(cc1C)OC(=O)CC2 | > 100 | > 100 | > 100 |  | > 100 | > 100 |  | > 100 | > 100 | > 100 | > 100 |  |  |  |  |  |  |  | 
12 | OCCOCCN1CCN(CCCN2c3ccccc3Sc3ccc(C(F)(F)F)cc32)CC1 | 22.6 | 33.1 | 3.57 | 27.8 | 38.9 | 28.3 | 38.3 | 20.3 | 28.2 | 27.8 | 30 |  |  |  |  |  |  |  | 
13 | CC(=O)OCC1=C(C(=O)O)N2C(=O)C(NC(=O)CSc3ccncc3)C2SC1 (stereo unspecified) | > 100 | > 100 | > 100 | > 100 | > 100 | > 100 | > 100 | > 100 | > 100 | > 100 | > 100 |  |  |  |  |  |  |  | 
14 | CCOC(=O)NC(Nc1ncccn1)(C(=O)OCC)C(F)(F)F (stereo unspecified) |  | > 100 | > 100 | > 100 | > 100 | > 100 | > 100 | > 100 | > 100 | > 100 | > 100 |  |  |  |  |  |  |  | 
15 | C[C@]12CC[C@@H]3c4ccc(O)cc4CC[C@H]3[C@@H]1CC[C@@H]2OP(=O)(O)O | > 100 | > 100 | > 100 | > 100 | > 100 | > 100 | > 100 | > 100 | > 100 | > 100 | > 100 |  |  |  |  |  |  |  | 
16 | O=C1Nc2ccccc2C1=Nc1cccc2ncccc12 | > 100 | > 100 | > 100 | > 100 | > 100 | > 100 | > 100 | > 100 | > 100 | > 100 | > 100 |  |  |  |  |  |  |  | 
17 | CC(=O)c1ccc2c(c1)c1c(C)c3c[n+](C)ccc3c(C)c1n2C | 46.5 | 3.52 | > 100 | 5.74 |  | > 29 | > 100 | 18.8 | > 100 | 69.2 | 39.9 |  |  |  |  |  |  |  | 

Source: PubChem BioAssay (NCI)
